Two compounds from US9226501B2, “Pesticidal compositions and processes related thereto” (Dow AgroSciences LLC, priority 2012, dated 2016) can be followed below.

Structures are written as SMILES.

Common to all, as to assay type: in vivo
Test [1] deals with Beet Armyworm (BAW) (spodoptera exigua). The test can be described thus: Bioassay on beet armyworm (BAW), 128-well diet tray assay. The following applies: Spodoptera exigua, 168 h; % mortality, second instar larvae, 50 μg/cm^2 on artificial diet, five to seven days, 25° C.; read-out: BAW Rating. An outline of the steps: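 Second-instar Spodoptera exigua larvae (one to five per well) on artificial diet surface-treated with 50 μg/cm^2 compound in 90:10 acetone-water, eight wells per compound. Held 5–7 days at 25° C, 14:10 light-dark; percent mortality averaged across wells.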

The subject of test [2] is Cabbage Looper (CL) (Trichoplusia ni). The test can be described thus: Bioassay on cabbage looper (CL), 128-well diet tray assay. The conditions noted are these: Trichoplusia ni, 168 h; % mortality, second instar larvae, 50 μg/cm^2 on artificial diet, five to seven days, 25° C.; read-out: CL Rating. An outline of the steps: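 Second instar larvae, one to five per well, on artificial diet surface-treated with 50 μg/cm^2 compound in acetone-water and dried. Held at 25° C, 14:10 light-dark, five to seven days; percent mortality averaged over eight wells.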

For test [3], the system named is green peach aphid (GPA) (Myzus persicae). In words: Bioassay on green peach aphid (GPA), foliar spray on cabbage seedlings. The conditions noted are these: 72 h, corrected % control (Abbott), 200 ppm spray on cabbage seedlings, three days, read-out: GPA Rating. Here is the method: Certain molecules disclosed in this document were tested against GPA using procedures described in the following example. In the reporting of the results, the “GPA Rating Table” was used (See Table Section). Cabbage seedlings grown in 3-inch pots, with 2-3 small (3-5 cm) true leaves, were used as test substrate. The seedlings were infested with 20-50 GPA (wingless adult and nymph stages) one day prior to chemical application. Four pots with individual seedlings were used for each treatment. Test compounds (2 mg) were dissolved in 2 mL of acetone/MeOH (1:1) solvent, forming stock solutions of 1000 ppm test compound. The stock solutions were diluted 5× with 0.025% Tween 20 in water to obtain the solution at 200 ppm test compound. A hand-held aspirator-type sprayer was used for spraying a solution to both sides of […] leaves until runoff. Reference plants (solvent check) were sprayed with the diluent only containing 20% by volume of acetone/MeOH (1:1) solvent. Treated plants were held in a holding room for three days at approximately 25° C. and ambient relative humidity (RH) prior to grading. Evaluation was conducted by counting the number of live aphids per plant under a microscope. Percent Control was measured by using Abbott's correction formula (W. S. Abbott, “A Method of Computing the Effectiveness of an Insecticide” J. Econ. Entomol. 18 (1925), pp. 265-267) as follows. […]

Turning to `C[C@@H](NC(=O)c1ccc(/C=C/C(c2cc(Cl)c(Cl)c(Cl)c2)C(F)(F)F)cc1I)C(=O)NCC(F)(F)F` (some centres unmarked) [FA16], the pest or weed control at 50 µg/cm2 in test [1] and in test [2] was 50 to 100% each time. Besides, in test [3], the pest or weed control at 200 ppm was 80 to 100%.

Consider `CCC[C@@H](NC(=O)c1ccc(/C=C/C(c2cc(Cl)c(Cl)c(Cl)c2)C(F)(F)F)cc1C)C(=O)NCC(F)(F)F` (some centres unmarked) [FA25], for which the pest or weed control at 50 µg/cm2 in test [1] and in test [2] was 50 to 100% in each case.
